Measured values: patent publication US10143740B2, “Inactivating pathogens with oxidizing agents for vaccine production” (priority 2005, dated 2018)
Read-outs that look alike come from different tables or passages of the source.

How the values were obtained:
[1] = test system: lymphocytic choriomeningitis virus (LCMV)
[2] = mouse, in vivo; cited from earlier work
[3] = in vitro and in vivo; cited from earlier work
[4] = rats, inhalation; cited from earlier work

SMILES: OO [H2O2, hydrogen peroxide]
- viral titer after treatment (monkeypox virus (MPV)): reduced to below the limit of detection
- H2O2 concentration at which infectivity is eliminated [1]: < 0.1%
- viral titer after treatment [1]: reduced to below the limit of detection
- viral titer after treatment (West Nile virus (WNV)): reduced to below the limit of detection
- H2O2 concentration after which no infectious virus could be detected (vaccinia virus): ≤ 0.03%
- viral titer after treatment (vaccinia virus): reduced to below the limit of detection
- viral titer after treatment (yellow fever virus (YFV)): reduced to below the limit of detection

SMILES: O=C1CCO1 [betapropiolactone]
- carcinogenicity [2]: produce squamous cell carcinomas, lymphomas and hepatomas

SMILES: C=O [formaldehyde]
- genotoxicity [3]: genotoxic in vitro and in vivo
- carcinogenicity [4]: induces squamous-cell carcinoma of the nasal cavity
